The structures appear in SMILES notation.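 How tested: cells in 96-well plates exposed to compound for 48 hours at five concentrations. TGI: total growth inhibition.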

Among the test systems are HL-60(TB) leukemia; SNB-75 CNS; CCRF-CEM leukemia; HOP-62 NSCLC; LOX IMVI melanoma; HCC-2998 colon; NCI-H23 lung; HT29 colon; SF-539 CNS; SK-MEL-28 melanoma; A498 renal.
Holding throughout (assay): growth of human tumour cells (NCI), 48 h

As to `CC1C(c2ccccc2)=CCON1c1ccccc1` (configuration not stated), the TGI in the experiment on HL-60(TB) leukemia, with SNB-75 CNS, with CCRF-CEM leukemia, in the experiment on HOP-62 NSCLC, with LOX IMVI melanoma and with HCC-2998 colon was above 100 µM each time. Also, the TGI in the experiment with NCI-H23 lung, with HT29 colon, in the experiment with SF-539 CNS and in the experiment on SK-MEL-28 melanoma was above 100 µM in each case.
With `CC[N+](CC)(CC)Cc1cn(S(=O)(=O)c2ccccc2)c2ccccc12`, the TGI in the experiment on HL-60(TB) leukemia, in the experiment with SNB-75 CNS, in the experiment on CCRF-CEM leukemia, in the experiment on HOP-62 NSCLC, in the experiment on HCC-2998 colon and with NCI-H23 lung was above 100 µM in each case. Further, the TGI with HT29 colon, with SF-539 CNS and in the experiment with SK-MEL-28 melanoma was above 100 µM throughout.
Regarding `N#CC(c1ccc(Cl)cc1)c1cccc(Cl)n1` (configuration not stated), the TGI in the experiment with HL-60(TB) leukemia was above 100 µM; in the experiment on SNB-75 CNS, 84.3 µM; in the experiment on CCRF-CEM leukemia, above 100 µM; in the experiment on HOP-62 NSCLC, above 100 µM; with HCC-2998 colon, above 100 µM; in the experiment with NCI-H23 lung it was above 100 µM. Also, the TGI with HT29 colon, in the experiment on A498 renal and in the experiment on SK-MEL-28 melanoma was above 100 µM in each case.
Regarding `CN(C)c1cccc(-c2cc(=O)c3cc4c(cc3[nH]2)OCO4)c1`, the TGI was 2.23 µM in the experiment on HL-60(TB) leukemia; above 100 µM in the experiment with CCRF-CEM leukemia; above 73.9 µM in the experiment with HOP-62 NSCLC; above 100 µM in the experiment with LOX IMVI melanoma; 0.567 µM in the experiment on HCC-2998 colon; above 100 µM in the experiment on HT29 colon. For the same molecule, the TGI is 4.58 µM in the experiment with A498 renal, 0.756 µM in the experiment with SF-539 CNS and above 100 µM in the experiment on SK-MEL-28 melanoma.
Consider `Cc1cccc(NC(=O)CSc2nnc(Cc3ccccc3)o2)c1`, for which the TGI in the experiment with HL-60(TB) leukemia, in the experiment with SNB-75 CNS, in the experiment with CCRF-CEM leukemia, in the experiment on HOP-62 NSCLC, in the experiment on LOX IMVI melanoma and with HCC-2998 colon was above 100 µM in each case. Also, the TGI in the experiment with NCI-H23 lung, in the experiment with HT29 colon, with A498 renal, in the experiment with SF-539 CNS and in the experiment on SK-MEL-28 melanoma was above 100 µM throughout.
Take `CC(C)(C)c1cc(N=NC(=S)NCc2ccccc2)cc(C(C)(C)C)c1O`: the TGI with HL-60(TB) leukemia is above 100 µM; with SNB-75 CNS it was 99.6 µM; in the experiment on CCRF-CEM leukemia, above 100 µM; with HOP-62 NSCLC, above 100 µM; with LOX IMVI melanoma it was above 100 µM; in the experiment on HCC-2998 colon, above 100 µM. Besides, the TGI with NCI-H23 lung, in the experiment with HT29 colon, in the experiment with A498 renal, with SF-539 CNS and with SK-MEL-28 melanoma was above 100 µM throughout.
As to `c1cc2[se][se]c3c4cccc5[se][se]c(c(c1)c23)c54`, the TGI in the experiment on HL-60(TB) leukemia, in the experiment on SNB-75 CNS, with CCRF-CEM leukemia, in the experiment with HOP-62 NSCLC, with LOX IMVI melanoma and in the experiment on NCI-H23 lung was above 100 µM in each case. The TGI in the experiment with HT29 colon, in the experiment on A498 renal, with SF-539 CNS and with SK-MEL-28 melanoma was above 100 µM throughout.
Turning to `C1=Cc2nc1c(-c1ccccc1)c1ccc([n-]1)c(-c1ccccc1)c1nc(c(-c3ccccc3)c3ccc([n-]3)c2-c2ccccc2)C=C1.[Zn+2]`, the TGI with HL-60(TB) leukemia, in the experiment on SNB-75 CNS, with CCRF-CEM leukemia, in the experiment on HOP-62 NSCLC, with LOX IMVI melanoma and in the experiment on HCC-2998 colon was above 100 µM throughout. Further, the TGI in the experiment on NCI-H23 lung, in the experiment on HT29 colon, in the experiment on SF-539 CNS and in the experiment with SK-MEL-28 melanoma was above 100 µM throughout.
Take `CCC12CC[C@H](C#N)N3CCc4c(n(c5ccccc45)C(=O)C1)C32` (some centres not stated): the TGI in the experiment on SNB-75 CNS was determined as 27.6 µM; in the experiment with CCRF-CEM leukemia, 44.3 µM; in the experiment on HOP-62 NSCLC it was 49.2 µM; in the experiment with LOX IMVI melanoma it was 27.3 µM; with HCC-2998 colon, 32.4 µM; in the experiment on NCI-H23 lung, 41.8 µM. For the same molecule, the TGI with HT29 colon is 31.3 µM; in the experiment on A498 renal it was 35.1 µM; in the experiment on SF-539 CNS, 38.2 µM; in the experiment with SK-MEL-28 melanoma it was 40.4 µM.
For the molecule `NC(=S)Nc1nnc(-c2ccc(-c3nnc(NC(N)=S)o3)cc2)o1`, the TGI in the experiment with HL-60(TB) leukemia, in the experiment on SNB-75 CNS, with CCRF-CEM leukemia, in the experiment on HOP-62 NSCLC, in the experiment with LOX IMVI melanoma and in the experiment with HCC-2998 colon was above 100 µM each time. Further, the TGI in the experiment on NCI-H23 lung, with HT29 colon, with A498 renal, in the experiment on SF-539 CNS and with SK-MEL-28 melanoma was above 100 µM each time.
As for `O=C(CSc1nnc(-c2ccc(N=Cc3ccc(Cl)cc3)cc2)o1)Nc1ccccc1`, the TGI in the experiment on HL-60(TB) leukemia was above 100 µM; with SNB-75 CNS, above 100 µM; in the experiment on CCRF-CEM leukemia it was above 100 µM; in the experiment on HOP-62 NSCLC, above 100 µM; with LOX IMVI melanoma, 36.4 µM; in the experiment on NCI-H23 lung it was above 100 µM. The TGI in the experiment with HT29 colon and with SK-MEL-28 melanoma was above 100 µM each time.
With `CCOC(=O)C(=O)Nc1ccc([N+](=O)[O-])cc1C#N`, the TGI in the experiment on HL-60(TB) leukemia, in the experiment on CCRF-CEM leukemia, with HOP-62 NSCLC, in the experiment with LOX IMVI melanoma, in the experiment with HCC-2998 colon and with NCI-H23 lung was above 100 µM each time. Besides, the TGI in the experiment on HT29 colon, in the experiment on SF-539 CNS and in the experiment on SK-MEL-28 melanoma was above 100 µM each time.
With `O=C1OC(c2ccccc2)(c2ccccc2)CC1CN1CCOCC1` (configuration not stated), the TGI in the experiment with HL-60(TB) leukemia was 28.3 µM; in the experiment with SNB-75 CNS, 49.1 µM; with CCRF-CEM leukemia, 9.44 µM; with HOP-62 NSCLC it was above 100 µM; in the experiment with LOX IMVI melanoma, 28 µM; with HCC-2998 colon, 31.4 µM. In addition, the TGI with NCI-H23 lung is 43.9 µM; in the experiment on HT29 colon, 15.1 µM; in the experiment with A498 renal, above 100 µM; in the experiment on SF-539 CNS, 32.6 µM; with SK-MEL-28 melanoma, 32.9 µM.
For the molecule `Clc1ccc2c(Cl)ncnc2c1I`, the TGI in the experiment on HL-60(TB) leukemia was 44.6 µM; with SNB-75 CNS, 75 µM; with HOP-62 NSCLC, above 100 µM; in the experiment on LOX IMVI melanoma it was above 100 µM; with HCC-2998 colon, above 100 µM; in the experiment on NCI-H23 lung, above 100 µM. Moreover, the TGI in the experiment on HT29 colon and with SK-MEL-28 melanoma was above 100 µM throughout.
Take `O=C(/C=C(\O)C(=O)O)/C=C(\O)c1ccccc1Cl`: the TGI in the experiment on HL-60(TB) leukemia, in the experiment on SNB-75 CNS, in the experiment with CCRF-CEM leukemia, with HOP-62 NSCLC, with LOX IMVI melanoma and in the experiment on HCC-2998 colon was above 100 µM each time. Further, the TGI in the experiment with NCI-H23 lung, in the experiment on HT29 colon, in the experiment on A498 renal, in the experiment with SF-539 CNS and with SK-MEL-28 melanoma was above 100 µM in each case.
For `CCOC(=O)C1=C(C)C2C3C(=O)NC(=O)C3C1(C)C1C(=O)NC(=O)C21` (configuration not stated), the TGI in the experiment on HL-60(TB) leukemia, with SNB-75 CNS, in the experiment on CCRF-CEM leukemia, with HOP-62 NSCLC, with LOX IMVI melanoma and in the experiment with HCC-2998 colon was above 100 µM throughout. Moreover, the TGI in the experiment on NCI-H23 lung, with HT29 colon, in the experiment on A498 renal, in the experiment with SF-539 CNS and with SK-MEL-28 melanoma was above 100 µM throughout.
Turning to `O=C(/C=C\c1cccc2ccccc12)c1ccc(Br)cc1`, the TGI was 43 µM in the experiment on HL-60(TB) leukemia; 56.3 µM with SNB-75 CNS; 50.6 µM in the experiment with CCRF-CEM leukemia; above 100 µM in the experiment on HOP-62 NSCLC; 31.7 µM with HCC-2998 colon; above 100 µM with NCI-H23 lung. The TGI is 35.3 µM with HT29 colon, above 100 µM in the experiment on A498 renal, 41.9 µM in the experiment on SF-539 CNS and 27.7 µM in the experiment on SK-MEL-28 melanoma.
Take `N=c1oc2cc(O)c(O)cc2cc1C(N)=O`: the TGI in the experiment with SNB-75 CNS was 96.3 µM; in the experiment with CCRF-CEM leukemia it was above 100 µM; with HOP-62 NSCLC it was above 100 µM; with LOX IMVI melanoma it was above 100 µM; in the experiment with HCC-2998 colon, above 100 µM; with NCI-H23 lung it was above 100 µM. For the same molecule, the TGI in the experiment with HT29 colon, in the experiment with A498 renal, in the experiment on SF-539 CNS and in the experiment on SK-MEL-28 melanoma was above 100 µM in each case.
`O=C(O/N=C1/CCC/C1=C\c1ccccc1)c1ccccc1`: the TGI in the experiment on HL-60(TB) leukemia, in the experiment with SNB-75 CNS, with CCRF-CEM leukemia, in the experiment with HOP-62 NSCLC, in the experiment on LOX IMVI melanoma and with NCI-H23 lung was above 100 µM each time. Moreover, the TGI in the experiment with HT29 colon, with A498 renal, with SF-539 CNS and in the experiment with SK-MEL-28 melanoma was above 100 µM in each case.
Regarding `COc1ccc2c(c1)CC1NC2Cc2ccccc21` (configuration not stated), the TGI in the experiment on SNB-75 CNS, in the experiment on CCRF-CEM leukemia, with HOP-62 NSCLC, with HCC-2998 colon, in the experiment with NCI-H23 lung and in the experiment with HT29 colon was above 100 µM each time. Also, the TGI in the experiment on A498 renal, in the experiment on SF-539 CNS and in the experiment with SK-MEL-28 melanoma was above 100 µM throughout.
Regarding `Cc1nc(Nc2ccccc2)sc1C(=O)NNC(N)=O`, the TGI in the experiment on HL-60(TB) leukemia is above 100 µM; with SNB-75 CNS it was 80.7 µM; with CCRF-CEM leukemia it was above 100 µM; in the experiment on HOP-62 NSCLC, above 100 µM; with LOX IMVI melanoma, above 100 µM; in the experiment on HCC-2998 colon, above 100 µM. For the same molecule, the TGI in the experiment on NCI-H23 lung, in the experiment on A498 renal, in the experiment with SF-539 CNS and in the experiment with SK-MEL-28 melanoma was above 100 µM in each case.

Source of the values: PubChem BioAssay (NCI).
